{"source": "patent US20080201790A1", "about": "“Method and product for regulating cell responsiveness to external signals” (priority 1993, published 2008)", "key": {"GST-Ras^V12": {"system": "GST-Ras^V12", "assay": "Binding of COS cell-expressed MEKK1 proteins to GST-Ras^V12 agarose", "conditions": "COS cell lysates, immunoblot", "from_the_text": "COS cells were transiently transfected by the DEAE-dextran protocol as generally described in Example 3. Cos cells were transfected with: (1) p-MEKK1 containing a nucleic acid molecule encoding MEKK1 as described in Lange-Carter et al. (Science 260:315-319, […]); (2) p-MEKKNH2 containing a nucleic acid molecule that encodes a 858 base pair Pvull(682)-Ncol(1541) restriction digest fragment of the amino terminus of MEKK1 ligated into pCMV5; (3) p-MEKKCOOH containing a nucleic acid molecule that encodes a 1435 base pair Ncol(1541)-Sspl(2976) restriction digest fragment that includes the entire kinase domain of MEKK1 ligated into pCMV5; (4) pCMV5 without insert; or (5) p-C4Raf containing a nucleic acid molecule that encodes the amino terminus of Raf-1 ligated into pCMV5. COS cells expressing the various MEKK1 proteins were […] COS cells expressing the various MEKK1 proteins were lysed in EB (1% Triton X-100, 10 mM Tris HCl [pH 7.4], 5 mM EDTA, 50 mM NaCl, 50 mM NaF, 0.1% bovine serum albumin, 0.2 U/ml aprotinin, 1 mM phenylmethylsulfonyl fluoride and 2 mM Na3 VO4). The lysates were separated into two equal parts for separate binding reactions. Half of the lysate was incubated with GST agarose (1.5 μg) while half of the lysate was incubated with GST-Ras^V12 agarose (1.5 μg) (purchased from UBI) for 1 hr at 4° C. […]"}, "Raf [1]": {"system": "Raf", "assay": "Raf activation assay (immunoprecipitated Raf, kinase-inactive MEK-1) in Rat 1a cells", "assay_type": "cell-based", "method": "(§1) Differential regulation of MEK in Rat 1a and NIH3T3 cells expressing gip2, v-src, v-ras, or v-raf led the present inventor to investigate the protein kinases that are putative regulators of MEK-1. Recently, it was shown that Raf-1 can phosphorylate and activate MEK. […] Cells were serum starved and challenged in the presence or absence of the appropriate growth factors, as described above. […] Cells were lysed by scraping in ice cold RIPA buffer (50 mM Tris, pH 7.2, 150 mM NaCl, 0.1% SDS, 0.5% sodium deoxycholate, 1.0% Triton X 100, 10 mM sodium pyrophosphate, 25 mM sodium glycerophosphate, 2 mM sodium vanadate, 2.1 μg/ml aprotinin) and were microfuged for 10 min to remove nuclei. The supernatants were normalized for protein content and precleared with protein A Sepharose prior to immunoprecipitation with rabbit antiserum to the C terminus of Raf-1 and protein A Sepharose for 2-3 h at 4° C. The beads were washed twice with ice cold RIPA and twice with PAN (10 mM Pipes, pH 7.0, 100 mM NaCl, 21 μg/ml aprotinin). A portion of the immunoprecipitate was diluted with SDS sample buffer and used for immunoblot analysis. […] Wild type recombinant MEK-1 was autophosphorylated in parallel as a marker. Reactions were terminated by the addition of 12.5 μl 5×SDS sample buffer, boiled for 5 minutes and subjected to SDS-PAGE and autoradiography."}, "Raf [2]": {"system": "Raf", "assay": "Raf activation assay (immunoprecipitated Raf, kinase-inactive MEK-1) in NIH3T3 cells", "assay_type": "cell-based", "method": "as §1"}, "MEK": {"system": "MEK", "assay": "MEK activity in cell lysates from thrombin stimulated Rat 1a cells", "assay_type": "cell-based", "from_the_text": "This Example Describes the Determination of Whether a Similar or Distinct MEK Activity is Involved in Activation of MAPK Though Gi Protein Coupled Receptors by Measuring MEK Activity in Cell Lysates from Thrombin Stimulated Rat 1a Cells"}, "MAPK": {"system": "MAPK", "assay": "Thrombin stimulation of MAPK", "assay_type": "cell-based"}, "[3]": {"system": "Swiss 3T3 cells and REF52 cells", "assay": "Beauvericin-induced apoptosis, anti-tubulin and propidium iodide staining", "assay_type": "cell-based", "conditions": "50 μM, 6 hours at 37° C.", "method": "A first group of transfected Swiss 3T3 cells and REF52 cells were treated with 50 μM beauvericin for 6 hours at 37° C. Beauvericin is a compound known to induce apoptosis in mammalian cells. A second group of cells were treated with a control buffer lacking beauvericin. The treated cells were then fixed in paraformaldehyde and permeabilized with saponin using protocols standard in the art. The permeabilized cells were then labelled by incubating the cells with a fluorescein-labelled anti-tubulin antibody (1:500; obtained from GIBCO, Gaithersburg, Md.) to detect cytoplasmic shrinkage or 10 μM propidium iodide (obtained from Sigma, St. Louis, Mo.) to stain DNA to detect nuclear condensation. The labelled cells were then viewed by differential fluorescent imaging using a Nikon Diaphot fluorescent microscope."}, "98 kD PC12 cell MEKK": {"system": "98 kD PC12 cell MEKK", "assay": "MEKK immunoprecipitate kinase assay from PC12 cells with kinase inactive MEK-1", "assay_type": "cell-based", "conditions": "serum starved PC12 cells", "method": "Reactions were stopped by the addition of 2×SDS sample buffer (20 μl). The samples were boiled for 3 minutes and subjected to SDS-PAGE and autoradiography. Raf-B was immunoprecipitated from the same untreated and treated PC12 cell lysates as above with an antiserum to a COOH-terminal peptide of Raf-B (Santa Cruz Biotechnology, Inc.) and assayed similarly. Raf-1 was immunoprecipitated with an antiserum to the 12 COOH-terminal amino acids of Raf-1 (Santa Cruz Biotechnology, Inc.).\nData represent the relative magnitude of the response for each timepoint as quantitated by phosphorimager analysis of radioactive gels from a typical experiment.\nExpression of N^17Ras was induced in PC12 clones stably transfected with the N^17Ras gene by the addition of dexamethasone to the starvation media. […] PC12 cell clones stably transfected with the N^17Ras gene are less responsive to EGF-mediated activation of MEKK activity than are wild type PC12 cells. […] MEKK activity in immunoprecipitates or column fractions was dissociable from that of EGF-stimulated c-Raf-1 and Raf-B activities.\nTo determine whether the growth factor-mediated activation of 98 kD PC12 cell MEKK was inhibited by PKA, forskolin was used to elevate intracellular cAMP and activate PKA. […] Raf-B activity was also assayed from the same cell lysates to test whether its regulation differed from that of MEKK. Raf-B was immunoprecipitated from the same cell lysates as described above and assayed for its ability to phosphorylate MEK-1 as described above."}, "Raf-B": {"system": "Raf-B", "assay": "Raf-B immunoprecipitate kinase assay from PC12 cells with kinase inactive MEK-1", "assay_type": "cell-based", "conditions": "EGF 30 ng/ml, serum starved PC12 cells"}, "MEKK1": {"system": "MEKK1", "assay": "Cellular localization of MEKK1 in Swiss 3T3 cells, antibody staining", "assay_type": "cell-based", "conditions": "serum starved Swiss 3T3 cells, 10 minutes", "from_the_text": "(§2) Cells were fixed and stained with an antibody specifically recognizing either MEKK1 or MEKK2. Secondary FITC-conjugated anti-rabbit IgG antibody was used for staining."}, "MEKK2": {"system": "MEKK2", "assay": "Cellular localization of MEKK2 in Swiss 3T3 cells, antibody staining", "assay_type": "cell-based", "conditions": "serum starved Swiss 3T3 cells, 10 minutes", "from_the_text": "as §2"}, "GST-Cdc42": {"biological_target": "GST-Cdc42 (Homo sapiens, UniProt P60953)", "sequence (P60953 whole entry, the tested form may be a part)": "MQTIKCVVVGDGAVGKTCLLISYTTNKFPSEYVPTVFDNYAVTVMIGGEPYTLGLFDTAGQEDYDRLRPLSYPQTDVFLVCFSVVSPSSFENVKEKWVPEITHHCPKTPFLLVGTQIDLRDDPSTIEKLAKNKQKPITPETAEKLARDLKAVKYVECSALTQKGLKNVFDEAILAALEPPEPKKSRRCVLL", "assay": "Binding of MEKK4 to GST fusion protein on glutathione-Sepharose, Cdc42", "method": "(§3) GST fusion proteins encoding Cdc42 or Rac loaded with either GTPγs or GDP were incubated with MEKK4 using previously described methods (Russell, M. et al. (1995) J. Biol. Chem. 270:11757-11760). The source of MEKK4 was either from a Cos cell transient transfection or a recombinant MEKK4 protein expressed in E. coli. The recombinant MEKK4 protein was truncated to express residues from 1261-1597 of the full length protein. A GST fusion protein of Ha-Ras was used as a control. The MEKK4 protein was incubated for 1 hr at 4° C. with either GST-Cdc42, GST-Rac or GST-Ras bound to glutathione-Sepharose beads. Each GST fusion protein had GTPγs or GDP bound to the Cdc42, Rac or Ras moiety of the fusion protein. Following the incubation the beads were washed extensively and the bound proteins removed in SDS-Laemmli buffer and resolved by SDS-PAGE using 10% acrylamide gels. The proteins were transferred to nitrocellulose and immunoblotted using a MEKK4 specific antibody recognizing the extreme COOH-terminus of MEKK4. […] The GDP bound forms of GST-Cdc42 and GST-Rac bound less than 10% of the MEKK4 bound in the presence of GTPγs."}, "GST-Rac": {"biological_target": "GST-Rac (Homo sapiens, UniProt P63000)", "assay": "Binding of MEKK4 to GST fusion protein on glutathione-Sepharose, Rac", "method": "as §3"}, "GST-Ras": {"biological_target": "GST-Ras (Homo sapiens, UniProt P01112)", "sequence (P01112 whole entry, the tested form may be a part)": "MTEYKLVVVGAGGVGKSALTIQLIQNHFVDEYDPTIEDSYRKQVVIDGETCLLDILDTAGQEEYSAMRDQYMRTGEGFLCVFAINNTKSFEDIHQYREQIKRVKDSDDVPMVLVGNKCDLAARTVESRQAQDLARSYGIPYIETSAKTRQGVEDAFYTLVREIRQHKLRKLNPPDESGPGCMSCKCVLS", "assay": "Binding of MEKK4 to GST fusion protein on glutathione-Sepharose, Ras", "conditions": "GTPγS or GDP bound form", "method": "as §3"}}}
{"substance": "C4Raf: amino terminus of Raf-1 encoded by p-C4Raf [reference compound]", "values": [{"measurement": "binding to GST-Ras^V12 (in words)", "setting": "GST-Ras^V12", "value": "bound to GST-Ras^V12(GTPγS) agarose"}]}
{"substance": "thrombin", "values": [{"measurement": "activation of Raf (in words)", "setting": "Raf [1]; Rat 1a cells", "value": "did not measurably activate Raf"}, {"measurement": "activation of Raf (in words)", "setting": "Raf [2]", "value": "does not"}, {"measurement": "magnitude of MEK activity relative to EGF stimulation", "setting": "MEK", "value": "two to three-fold less"}, {"measurement": "stimulation of MEK over basal", "setting": "MEK", "value": "two to three-fold over basal"}, {"measurement": "time of maximal stimulation of MAPK", "setting": "MAPK", "value": 3, "unit": "min"}]}
{"substance": "beauvericin", "values": [{"measurement": "morphology characteristic of apoptosis", "setting": "[3]", "value": "cytoplasmic shrinkage (monitored by the anti-tubulin antibodies) and nuclear condensation"}]}
{"substance": "EGF: human EGF, epidermal growth factor", "values": [{"measurement": "persistence of MEKK activation", "setting": "98 kD PC12 cell MEKK; EGF 30 ng/ml", "value": "at least 30 minutes"}, {"measurement": "MEKK activity after stimulation (in words)", "setting": "98 kD PC12 cell MEKK; 5 minutes", "value": "increased MEKK activity"}, {"measurement": "time of peak Raf-B activity", "setting": "Raf-B", "value": "3 to 5", "unit": "min"}, {"measurement": "Raf catalyzed phosphorylation of MEK-1", "setting": "Raf [1]; Gip2 expressing Rat 1a cells", "value": 1.8, "unit": "fold"}, {"measurement": "Raf phosphorylation of recombinant MEK-1 over basal", "setting": "Raf [1]; Rat 1a cells", "value": "approximately 2.6 fold"}, {"measurement": "Raf catalyzed phosphorylation of MEK-1", "setting": "Raf [1]; v-Src expressing Rat 1a cells", "value": 1.4, "unit": "fold"}, {"measurement": "activation of Raf", "setting": "Raf [2]", "value": "approximately 2.7 fold"}, {"measurement": "cellular localization of MEKK1", "setting": "MEKK1", "value": "induced a dramatic translocation of MEKK1 to the plasma membrane"}, {"measurement": "cellular localization of MEKK2", "setting": "MEKK2", "value": "did not effect the cellular localization of MEKK2"}]}
{"substance": "MEKK4: MEK kinase 4 protein, SEQ ID No. 12 / 14", "values": [{"measurement": "binding to Cdc42 in the GTPγS form", "setting": "GST-Cdc42; 1 hr at 4° C., immunoblot", "value": "specifically bound"}, {"measurement": "MEKK4 bound by GDP form relative to GTPγs form", "setting": "GST-Cdc42; GST-Cdc42", "value": "less than 10%"}, {"measurement": "binding to Rac in the GTPγS form", "setting": "GST-Rac; 1 hr at 4° C., immunoblot", "value": "specifically bound"}, {"measurement": "MEKK4 bound by GDP form relative to GTPγs form", "setting": "GST-Rac; GST-Rac", "value": "less than 10%"}, {"measurement": "binding to Ras", "setting": "GST-Ras", "value": "did not bind significantly"}]}
